Tests used:
Format in all cases: in vivo
[1] = system: western flower thrips (Frankliniella occidentalis); assay: Test E: control of western flower thrips on Soleil bean plant, contact and/or systemic; details: adult thrips, assessed after 6 days, replicated three times
Outline: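 A 5-7 day old Soleil bean plant was sprayed with compound at 250 or 50 ppm in 10% acetone/water with 300 ppm X-77 surfactant, dried 1 hour, then infested with 22-27 adult thrips. After 6 days at 25° C., 45-55% relative humidity, mortality and plant damage were rated; three replicates.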

[2] = system: fall armyworm (Spodoptera frugiperda); assay: Test B: control of fall armyworm on corn (maize) plant, foliar spray; details: sprayed at 50 ppm; 1-day-old larvae on corn; replicated three times
Procedure: Test compounds were formulated using a solution containing 10% acetone, 90% water and 300 ppm X-77™ Spreader Lo-Foam Formula non-ionic surfactant containing alkylarylpolyoxyethylene, free fatty acids, glycols and isopropanol (Loveland Industries, Inc. Greeley, Colo., USA). The formulated compounds were applied in 1 mL of liquid through a SUJ2 atomizer nozzle with ⅛ JJ custom body (Spraying Systems Co. Wheaton, Ill., USA) positioned 1.27 cm (0.5 inches) above the top of each test unit. All experimental compounds in these tests were sprayed at 50 ppm, and the test was replicated three times. After spraying of the formulated test compound, each test unit was allowed to dry for 1 h and then a black, screened cap was placed on top. The test units were held for 6 days in a growth chamber at 25° C. and 70% relative humidity. Plant feeding damage was then visually assessed based on foliage consumed and a pest mortality rating was also counted and calculated for each test unit.
For evaluating control of fall armyworm (Spodoptera frugiperda) the test unit consisted of a small open container with a 4-5-day-old corn (maize) plant inside. This was pre-infested (using a core sampler) with 10-15 1-day-old larvae on a piece of insect diet. Test compounds were formulated and sprayed at 50 ppm as described for Test A and replicated three times. After spraying, the test units were maintained in a growth chamber and then the control efficacy was rated for each test unit as described for Test A.

[3] = system: diamondback moth (Plutella xylostella); assay: Test A: control of diamondback moth on radish plant, foliar spray; details: sprayed at 50 ppm; neonate larvae on radish; assessed after 6 days; replicated three times
Outline: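 Radish plants 12–14 days old, pre-infested with about 50 neonate larvae, were sprayed with compound at 50 ppm in 10% acetone/water with 300 ppm X-77 surfactant, in three replicates. Units were held 6 days at 25 °C and 70% RH. Feeding damage was assessed visually and mortality was counted.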

C[C@@H](NC(=O)c1ccc(C2=NOC(c3cc(C(F)(F)F)cc(C(F)(F)F)c3)(C(F)(F)F)C2)c2ccccc12)C(=O)NCC1CC1(F)F (stereo partly drawn) [Compound 80]
control efficacy (feeding damage or mortality): very good to excellent levels ([1]; sprayed at 50 ppm): 20% or less feeding damage or 80% or more mortality
control efficacy (feeding damage or mortality): very good to excellent levels ([1]; sprayed at 250 ppm): 20% or less feeding damage or 80% or more mortality
control efficacy (feeding damage or mortality): very good to excellent levels [2]: 20% or less feeding damage or 80% or more mortality
control efficacy (feeding damage or mortality): very good to excellent levels [3]: 20% or less feeding damage or 80% or more mortality

O=C(CNC(=O)c1ccc(C2=NOC(c3cc(C(F)(F)F)cc(C(F)(F)F)c3)(C(F)(F)F)C2)c2ccccc12)NC1CC1 (stereo not drawn) [Compound 55]
control efficacy (feeding damage or mortality): very good to excellent levels ([1]; sprayed at 50 ppm): 20% or less feeding damage or 80% or more mortality
control efficacy (feeding damage or mortality): very good to excellent levels ([1]; sprayed at 250 ppm): 20% or less feeding damage or 80% or more mortality
control efficacy (feeding damage or mortality): very good to excellent levels [2]: 20% or less feeding damage or 80% or more mortality
control efficacy (feeding damage or mortality): very good to excellent levels [3]: 20% or less feeding damage or 80% or more mortality

O=C(CNC(=O)c1ccc(C2=NOC(c3cc(Cl)cc(OCC(F)(F)F)c3)(C(F)(F)F)C2)c2ccccc12)NC1CC1 (stereo not drawn) [Compound 85]
control efficacy (feeding damage or mortality): very good to excellent levels ([1]; sprayed at 50 ppm): 20% or less feeding damage or 80% or more mortality
control efficacy (feeding damage or mortality): very good to excellent levels [2]: 20% or less feeding damage or 80% or more mortality
control efficacy (feeding damage or mortality): very good to excellent levels [3]: 20% or less feeding damage or 80% or more mortality

CSCCNC(=O)CNC(=O)c1ccc(C2=NOC(c3cc(Cl)c(Cl)c(Cl)c3)(C(F)(F)F)C2)c2ccccc12 (stereo not drawn) [Compound 49]
control efficacy (feeding damage or mortality): very good to excellent levels ([1]; sprayed at 250 ppm): 20% or less feeding damage or 80% or more mortality
control efficacy (feeding damage or mortality): very good to excellent levels [2]: 20% or less feeding damage or 80% or more mortality
control efficacy (feeding damage or mortality): very good to excellent levels [3]: 20% or less feeding damage or 80% or more mortality

O=C(CNC(=O)c1ccc(C2=NOC(c3cc(Cl)cc(Cl)c3)(C(F)(F)F)C2)c2ccccc12)NCC1CC1 (stereo not drawn) [Compound 44]
control efficacy (feeding damage or mortality): very good to excellent levels ([1]; sprayed at 50 ppm): 20% or less feeding damage or 80% or more mortality
control efficacy (feeding damage or mortality): very good to excellent levels ([1]; sprayed at 250 ppm): 20% or less feeding damage or 80% or more mortality
control efficacy (feeding damage or mortality): very good to excellent levels [2]: 20% or less feeding damage or 80% or more mortality
control efficacy (feeding damage or mortality): very good to excellent levels [3]: 20% or less feeding damage or 80% or more mortality

O=C(CNC(=O)c1ccc(C2=NOC(c3cc(Cl)cc(OC(F)(F)F)c3)(C(F)(F)F)C2)c2ccccc12)NCC1CC1 (stereo not drawn) [Compound 81]
control efficacy (feeding damage or mortality): very good to excellent levels ([1]; sprayed at 50 ppm): 20% or less feeding damage or 80% or more mortality
control efficacy (feeding damage or mortality): very good to excellent levels [2]: 20% or less feeding damage or 80% or more mortality
control efficacy (feeding damage or mortality): very good to excellent levels [3]: 20% or less feeding damage or 80% or more mortality

O=C(CNC(=O)c1ccc(C2=NOC(c3cc(Cl)cc(OCC(F)(F)F)c3)(C(F)(F)F)C2)c2ccccc12)NCC1CC1 (stereo not drawn) [Compound 84]
control efficacy (feeding damage or mortality): very good to excellent levels ([1]; sprayed at 50 ppm): 20% or less feeding damage or 80% or more mortality
control efficacy (feeding damage or mortality): very good to excellent levels [2]: 20% or less feeding damage or 80% or more mortality
control efficacy (feeding damage or mortality): very good to excellent levels [3]: 20% or less feeding damage or 80% or more mortality

O=C(CNC(=O)c1ccc(C2=NOC(c3cc(Cl)cc(C(F)(F)F)c3)(C(F)(F)F)C2)c2ccccc12)NCC1CC1 (stereo not drawn) [Compound 76]
control efficacy (feeding damage or mortality): very good to excellent levels ([1]; sprayed at 50 ppm): 20% or less feeding damage or 80% or more mortality
control efficacy (feeding damage or mortality): very good to excellent levels ([1]; sprayed at 250 ppm): 20% or less feeding damage or 80% or more mortality
control efficacy (feeding damage or mortality): very good to excellent levels [2]: 20% or less feeding damage or 80% or more mortality
control efficacy (feeding damage or mortality): very good to excellent levels [3]: 20% or less feeding damage or 80% or more mortality

CC(NC(=O)c1ccc(C2=NOC(c3cc(Cl)cc(C(F)(F)F)c3)(C(F)(F)F)C2)c2ccccc12)C(=O)NC1CC1 (stereo not drawn) [Compound 78]
control efficacy (feeding damage or mortality): very good to excellent levels ([1]; sprayed at 50 ppm): 20% or less feeding damage or 80% or more mortality
control efficacy (feeding damage or mortality): very good to excellent levels ([1]; sprayed at 250 ppm): 20% or less feeding damage or 80% or more mortality
control efficacy (feeding damage or mortality): very good to excellent levels [2]: 20% or less feeding damage or 80% or more mortality
control efficacy (feeding damage or mortality): very good to excellent levels [3]: 20% or less feeding damage or 80% or more mortality

O=C(NCC(=O)N1CCC(F)(F)C1)c1ccc(C2=NOC(c3cc(Cl)cc(Cl)c3)(C(F)(F)F)C2)c2ccccc12 (stereo not drawn) [Compound 90]
control efficacy (feeding damage or mortality): very good to excellent levels ([1]; sprayed at 50 ppm): 20% or less feeding damage or 80% or more mortality
control efficacy (feeding damage or mortality): very good to excellent levels ([1]; sprayed at 250 ppm): 20% or less feeding damage or 80% or more mortality
control efficacy (feeding damage or mortality): very good to excellent levels [2]: 20% or less feeding damage or 80% or more mortality
control efficacy (feeding damage or mortality): very good to excellent levels [3]: 20% or less feeding damage or 80% or more mortality

CNC(=O)[C@H]1CCCN1C(=O)c1ccc(C2=NOC(c3cc(Cl)cc(Cl)c3)(C(F)(F)F)C2)c2ccccc12 (stereo partly drawn) [Compound 104]
control efficacy (feeding damage or mortality): very good to excellent levels ([1]; sprayed at 50 ppm): 20% or less feeding damage or 80% or more mortality
control efficacy (feeding damage or mortality): very good to excellent levels ([1]; sprayed at 250 ppm): 20% or less feeding damage or 80% or more mortality
control efficacy (feeding damage or mortality): very good to excellent levels [2]: 20% or less feeding damage or 80% or more mortality
control efficacy (feeding damage or mortality): very good to excellent levels [3]: 20% or less feeding damage or 80% or more mortality

CS(=O)(CCNC(=O)c1ccc(C2=NOC(c3cc(Cl)cc(Cl)c3)(C(F)(F)F)C2)c2ccccc12)=NC(=O)C(F)(F)F (stereo not drawn) [Compound 93]
control efficacy (feeding damage or mortality): very good to excellent levels ([1]; sprayed at 50 ppm): 20% or less feeding damage or 80% or more mortality
control efficacy (feeding damage or mortality): very good to excellent levels ([1]; sprayed at 250 ppm): 20% or less feeding damage or 80% or more mortality
control efficacy (feeding damage or mortality): very good to excellent levels [2]: 20% or less feeding damage or 80% or more mortality
control efficacy (feeding damage or mortality): very good to excellent levels [3]: 20% or less feeding damage or 80% or more mortality

CC(NC(=O)c1ccc(C2=NOC(c3cc(C(F)(F)F)cc(C(F)(F)F)c3)(C(F)(F)F)C2)c2ccccc12)C(N)=O (stereo not drawn) [Compound 69]
control efficacy (feeding damage or mortality): very good to excellent levels ([1]; sprayed at 50 ppm): 20% or less feeding damage or 80% or more mortality
control efficacy (feeding damage or mortality): very good to excellent levels [2]: 20% or less feeding damage or 80% or more mortality
control efficacy (feeding damage or mortality): very good to excellent levels [3]: 20% or less feeding damage or 80% or more mortality

CC(=O)N(C)CCCNC(=O)c1ccc(C2=NOC(c3cc(Cl)cc(Cl)c3)(C(F)(F)F)C2)c2ccccc12 (racemic) [Compound 4]
control efficacy (feeding damage or mortality): very good to excellent levels ([1]; sprayed at 50 ppm): 20% or less feeding damage or 80% or more mortality
control efficacy (feeding damage or mortality): very good to excellent levels ([1]; sprayed at 250 ppm): 20% or less feeding damage or 80% or more mortality
control efficacy (feeding damage or mortality): very good to excellent levels [2]: 20% or less feeding damage or 80% or more mortality
control efficacy (feeding damage or mortality): very good to excellent levels [3]: 20% or less feeding damage or 80% or more mortality
